{
  "source": "patent US20160223554A1",
  "about": "“METHODS FOR DIAGNOSIS, PROGNOSIS AND METHODS OF TREATMENT” (priority 2011, published 2016)",
  "key": {"AML leukemic cells": {"system": "AML leukemic cells", "experiment": "Apotosis/Cytostasis Arm with kinase inhibitors (Example 13)", "type": "cell-based, human", "settings": "two samples with greatest SCF and G-CSF signaling response; 1 μM; 48-hr incubation", "from_the_text": "All results were compared with results from bone marrow samples from healthy donors (N=6)."}, "AML blasts": {"system": "AML blasts", "experiment": "SCNP functional apoptosis and DNA damage response assay in AML PBMC (Examples 2, 6, 8, 10)", "type": "cell-based, human", "settings": "with staurosporine or etoposide", "description": "A viable cell will be Aqua negative and PARP negative and a measure of cell death is PARP and/or Aqua positivity.\n“Apoptosis”=% of PARP^−Aqua^−unstim−% of PARP^−Aqua^−Drug.\nFunctional assays were performed as previously described. See Irish, et al., Cell 2004; 118:217-228.\nThe median fluorescence intensity (MFI) was computed for each node from the fluorescence intensity levels for the cells in the myeloid population. The MFI values were then used to compute a variety of metrics by comparing them to baseline or background values, including the unmodulated condition, cellular autofluorescence and antibody isotype controls. The following metrics were computed: • 1. Basal MFI (“Basal”)=log2(MFIUnmodulated Stained)−log2(MFIGated Unstained (Autofluoresence)), designed to measure the basal levels of a certain protein under unmodulated conditions. • 2. Fold Change MFI (“Fold”)=log2(MFIModulated Stained)−log2(MFIUnmodulated Stained), a measure of the change in the activation state of a protein under modulated conditions. • 3. Total Phospho MFI (“TotalPhospho”)=log2(MFIModulated Stained)−log2(MFIGated Unstained (Autofluorescence)), a measure of the total levels of a protein under modulated conditions. • 4. Relative Protein Expression (“Rel. Expression”)=log2(MFIstain)−log2(MFIControl), a measure of the levels of surface marker staining relative to control antibody staining • 5. […]"}, "[1]": {"settings": "cited from earlier work"}},
  "note": "Read-outs that look alike come from different tables or passages of the source. Residues, ends and D or L forms follow the SMILES beside them. *: point of attachment. Cbz = O=C(OCc1ccccc1)*; CH2F = FC*",
  "data": [
    {"smiles": "C[C@@H]1CCN(C(=O)CC#N)C[C@@H]1N(C)c1ncnc2[nH]ccc12", "note": "[CP-690,550]", "values": [
      {"measurement": "sensitivity to kinase inhibitor, cytostasis readouts", "setting": "AML leukemic cells", "result": "most sensitive"}
    ]},
    {"smiles": "COC(=O)CC(NC(=O)C(C)NC(=O)C(NC(=O)OCc1ccccc1)C(C)C)C(=O)CF", "note": "(stereo not drawn) [Z-VAD, Benzyloxycarbonyl-Val-Ala-Asp (OMe) fluoromethylketone] (Cbz-Val-Ala-Asp(OMe)-CH2F; configuration not given here)", "values": [
      {"measurement": "effect of co-incubation with pan-Caspase inhibitor on Cleaved Caspase-3 and PARP", "setting": "AML blasts; samples 0341, 0521", "result": "inhibited cleavage of caspase 3 and PARP to near completion"},
      {"measurement": "effect of co-incubation with pan-Caspase inhibitor on PARP cleavage", "setting": "AML blasts; samples 8303, 8402", "result": "only partially inhibited"}
    ]},
    {"smiles": "COc1cccc2c1C(=O)c1c(O)c3c(c(O)c1C2=O)C[C@@](O)(C(C)=O)C[C@@H]3O[C@H]1C[C@H](N)[C@H](O)[C@H](C)O1", "note": "[Daunorubicin]", "values": [
      {"measurement": "peak plasma concentration", "setting": "[1]; Daunorubicin at 25 mg/m2", "result": 50, "unit": "ng/mL"},
      {"measurement": "peak plasma concentration", "setting": "[1]; Daunorubicin at 50 mg/m2", "result": 200, "unit": "ng/mL"}
    ]},
    {"smiles": "Nc1ccn([C@@H]2O[C@H](CO)[C@@H](O)[C@@H]2O)c(=O)n1", "note": "[Cytarabine, 1β-arabinofuranosylcytosine]", "values": [
      {"measurement": "peak plasma concentration", "setting": "[1]; high dose Cytarabine, 3 g/m2", "result": 2, "unit": "µM"},
      {"measurement": "peak plasma concentration", "setting": "[1]; standard dose of Cytarabine, 100 mg/m2", "result": "approximately 40 nM"}
    ]}
  ]
}
